In publication PMC11742723, “The clinical-stage drug BTZ-043 accumulates in murine tuberculosis lesions and efficiently acts against Mycobacterium tuberculosis” (Nature Communications, 2025):
In brackets after ≈: the same amount, converted by molar mass. Several values for one entry are separate records, joined by “and”; a condition that tells them apart may be missing. Equal values may be shown once.

Key:
[1] = Impact of γ-irradiation on BTZ-043 in spiked liver mimetic tissue cryosections; design: species or system mouse
[2] = test system: Mtb; design: method as in PMID 39793592; details: phase IIa EBA, 250 mg - 1750 mg once daily for 14 days; cited from earlier work
[3] = test system: Mtb; design: method as in PMID 28821804; details: NOS2-deficient mice, 50 mg/kg/day, cited from earlier work
[4] = test system: Mtb H37Rv; test: BTZ-043 treatment for 10 days of Mtb-infected IL-13tg mice (pulmonary CFU); type: in vivo, Mycobacterium tuberculosis
[5] = in vivo; details: IL-13tg, mouse, oral, 250 mg/kg
[6] = in vitro; details: human
[7] = test system: Mtb H37Rv; test: Prolonged BTZ-043 treatment of Mtb-infected IL-13tg mice (pulmonary CFU); type: in vivo, Mycobacterium tuberculosis
[8] = test system: Mtb H37Rv; test: Ziehl-Neelsen staining and histology of centrally necrotizing granulomas in IL-13tg mice; type: in vivo, Mycobacterium tuberculosis; details: 250 mg/kg/day 10 days, versus untreated
Method: Cryosections were fixed with 4% paraformaldehyde/PBS (24 h or 1 h for non-irradiated or irradiated sections, respectively) prior to staining with haematoxylin and eosin (HE), ZN or Heidenhain’s azan trichrome. For immunohistochemical analysis ZN stained cryosections were probed with rabbit polyclonal CD68 antibody (1:200, ab125212, Abcam, Cambridge, UK) which was detected with biotinylated goat anti-rabbit antibody (1:100, 111-065-144, Jackson Immunoresearch, Suffolk, UK)[13]. To visualize lipid droplets, irradiated cryosections were fixed (10% ice-cold formalin/PBS), washed with 60% 2-propanol, and incubated in Oil Red O solution (O0625, Sigma-Aldrich, Taufkirchen, Germany). After washing (60% 2-propanol and water), Gill’s haematoxylin was used for counterstaining. Images were acquired on a BX41 light microscope (Olympus, Hamburg, Germany) using cellSens imaging software (Olympus, Hamburg, Germany) or NIS-Elements software (Nikon, Badhoevedorp, The Netherlands). Post MALDI imaging HE staining was performed with the following protocol[40]: the matrix layer was washed off with MeOH. Rehydrated (2 min in 100%, 70%, 40% EtOH then 100% H2O) samples were submerged in Mayers haematoxylin solution for 12 min followed by 10 min submersion in Na2CO3 (1%) and rinsed with distilled water. Counterstaining was performed by 2-min submersion in 0.5% acidified eosin Y.

[9] = test system: H37Rv; details: in vitro, against H37Rv; cited from earlier work
[10] = test system: Mtb; design: method as in PMID 37791784; details: C3HeB/FeJ substrain, 2 months of therapy; cited from earlier work
[11] = In vitro permeability assay in Caco-2 monolayers; details: human, Caco-2
[12] = test system: Caco-2 cell monolayers; test: In vitro permeability assay in Caco-2 monolayers; details: direction AB, time 60 min
[13] = BTZ-043 spiked liver homogenate section (9.7 µg/g), no irradiation
[14] = BTZ-043 spiked liver homogenate section (9.7 µg/g), no irradiation, LC-MS/MS
[15] = IL-13tg mice, 250 mg/kg/day, 10 days

What does the source list for `C[C@H]1COC2(CCN(c3nc(=O)c4cc(C(F)(F)F)cc([N+](=O)[O-])c4s3)CC2)O1` [BTZ-043]?
ng/mg lung tissue, technical replicate 1 [1, 13]: 6.1 ng/mg and 5.48 ng/mg and 7.3 ng/mg and 4.22 ng/mg and 6.84 ng/mg and 6.88 ng/mg and 6.26 ng/mg; ng/mg lung tissue, technical replicate 2 [1, 13]: 6.14 ng/mg and 6.24 ng/mg and 7.55 ng/mg and 4.89 ng/mg and 8.49 ng/mg and 7.42 ng/mg and 7.29 ng/mg; Extract concentration, technical replicate 1 [1, 14]: 0.0195 µg/mL and 0.0179 µg/mL and 0.0233 µg/mL and 0.0135 µg/mL and 0.0216 µg/mL and 0.0204 µg/mL and 0.0187 µg/mL; Extract concentration, technical replicate 2 [1, 14]: 0.0197 µg/mL and 0.0204 µg/mL and 0.0241 µg/mL and 0.0156 µg/mL and 0.0268 µg/mL and 0.0221 µg/mL and 0.0218 µg/mL; ng/mg lung tissue, Mean ([1]; BTZ-043 spiked liver homogenate section (9.7 µg/g), no irradiation, mean of technical replicates): 6.12 ng/mg and 5.86 ng/mg and 7.42 ng/mg and 4.56 ng/mg and 7.66 ng/mg and 7.15 ng/mg and 6.78 ng/mg; Conc. (Targetlynx export, sample extract) ([1]; BTZ-043 spiked liver homogenate section, no irradiation, injections 1 and a, internal standard reserpine): 1.87E-02; impact of γ-irradiation on the concentration and distribution of BTZ-043 ([1]; liver mimetic cryosections, 5.85 kGy): does not impact; BTZ-043 concentration in liver mimetic cryosection, outlier removed ([1]; spiked liver mimetic tissue, rout method outlier): 24.95 ng/mg; bacterial killing with increasing dose in TB patients [2]: no obvious further increase in bacterial killing above daily doses of 1000 mg; bactericidal activity ([3]; 4 weeks of treatment): profound bactericidal activity; effect on bacterial burden ([3]; two weeks): hardly reduced the bacterial burden; pulmonary CFU / mouse ([4]; BTZ-043 [250 mg/kg], 2 weeks of therapy, individual mice, female and male, 250 mg/kg): 22635294 CFU / mouse and 34160000 CFU / mouse and 22750000 CFU / mouse and 19564286 CFU / mouse and 20000000 CFU / mouse; reduction of the bacterial load versus start of treatment ([4]; IL-13tg mice lungs, 250 mg/kg/day, 10 days): 0.9 log10 CFU; reduction of the bacterial burden ([4]; IL-13tg mice lungs, 250 mg/kg/day, 10 days, versus before treatment): 86%; bacterial burden after therapy as share of the initial CFU counts [4, 15]: 13.8%; mean pulmonary bacterial burden after treatment [4, 15]: 4.8 × 10^7 CFU; pulmonary bacterial burden after therapy ([4]; IL-13tg mice, 250 mg/kg/day, 10 days, mean): 7.69 log10 CFU; pulmonary CFU counts / mouse ([4]; IL-13tg mice, female, 10 days BTZ-043 250 mg/kg, 250 mg/kg): 22032000 and 27394286; concentration at 0.5 h ([5]; both, lung (cryosections)): 1120 ± 190 ng/g; concentration at 2 h ([5]; both, lung (cryosections)): 910 ± 150 ng/g; concentration at 8 h ([5]; both, lung (cryosections)): 0.27 µg/mL; concentration at 4 h ([5]; female, lung cryosection): 780 ng/g; concentration at 8 h ([5]; female, lung cryosection): 260 ng/g; concentration at 2 h ([5]; female, lung cryosections): 1090 ng/g; concentration at 2 h ([5]; male, lung cryosection): 950 ng/g; concentration at 0.5 h ([5]; male, lung cryosections): 1280 ng/g; concentration at 4 h ([5]; male, lung cryosections): 1380 ng/g; concentration at 8 h ([5]; male, lung cryosections): 730 ng/g; Papp B→A at 120 min ([6]; Caco-2): 69 to 129 nm/s; Papp at 120 min, 1 µg/mL ([6]; Caco-2, Mean Papp): 94.4 nm/s; Papp at 120 min, 4 µg/mL ([6]; Caco-2, Mean Papp): 129 nm/s; pulmonary CFU / mouse ([7]; BTZ-043 [250 mg/kg], 4-6 weeks of therapy, individual mice, female and male, 250 mg/kg): 823500 CFU / mouse and 616966 CFU / mouse and 3482791 CFU / mouse and 4043721 CFU / mouse and 7632000 CFU / mouse; reduction of the pulmonary bacterial burden compared to the vehicle group ([7]; IL-13tg mice, 250 mg/kg 5 times a week, prolonged therapy (4 to 6 weeks)): more than 2 log10 CFU; acid fast bacilli (AFB) within centrally necrotizing granulomas (ZN staining) [8]: most notable reduction in AFB within the layer of foamy macrophages; MIC [9]: 1 ng/mL (≈ 2.32 nM); effect on pulmonary bacterial load [10]: significant reduction of the pulmonary bacterial load; Papp A→B at 120 min [11]: 94.4 to 113 nm/s; Papp at 120 min, 4 µg/mL [11]: 113 nm/s; efflux ratio at 120 min, 1 µg/mL [11]: 0.73; efflux ratio at 120 min, 4 µg/mL [11]: 1.14; Concentration ([12]; BTZ-043 4 μg mL^-1, replicates 1-3): 0.124355 µg/mL; Calculated Amount ([12]; BTZ-043 (4 µg mL^-1), compartment baso): 124.355
